# Assays:
# [1] = system: non-CF human tracheal gland (HTG) serous cells; assay: Short-circuit current in human tracheal gland (HTG) serous cells; assay type: cell-based; details: T16Ainh-A01 pretreatment
# Experimental: FIG. 5A-B. Airway epithelial chloride secretion. FIG. 5A. Short-circuit current in CF HBE cells. Eact and UTP (100 μM) were added in control (left) and IL-4 (10 ng/ml, 24 h, middle) treated CF HBE cells. (right) Summary of Eact-induced, T16Ainh-A01-sensitive peak current (mean±S.E., n=6-8, * P<0.05). ENaC was inhibited by 10 μM amiloride. FIG. 5B. Eact (10 μM) and UTP (100 μM) induced CaCC Cl^− current measured in primary cultures of non-CF human tracheal gland (HTG) serous cells. (left and gmiddle) TMEM16A, CFTR and ENaC were inhibited by pretreatment with T16Ainh-A01, CFTRinh-172 and amiloride, respectively. Inset: TMEM16A immunoblot in whole cell homogenates of CF HBE and HTG cells. (right) Summary of UTP and Eact-induced peak current in the presence and absence of T16Ainh-A01 (mean±S.E., n=3, * P<0.05). […]
# Snapwell inserts containing TMEM16A-expressing FRT, HBE, CF HBE or HTG cells were mounted in Ussing chambers (Physiologic Instruments, San Diego, Calif.). […] Apical membrane current (for FRT cells) and short-circuit current were measured using an EVC4000 Multi-Channel V/I Clamp (World Precision Instruments, Sarasota, Fla.) and recorded using PowerLab/8sp (AD Instruments, Castle Hill, Australia). […]
# [2] = system: CF human bronchial epithelial (CF HBE) cells; assay: Short-circuit current in CF HBE cells; assay type: cell-based
# Experimental: FIG. 5A-B. Airway epithelial chloride secretion. FIG. 5A. Short-circuit current in CF HBE cells. Eact and UTP (100 μM) were added in control (left) and IL-4 (10 ng/ml, 24 h, middle) treated CF HBE cells. (right) Summary of Eact-induced, T16Ainh-A01-sensitive peak current (mean±S.E., n=6-8, * P<0.05). ENaC was inhibited by 10 μM amiloride. FIG. 5B. Eact (10 μM) and UTP (100 μM) induced CaCC Cl^− current measured in primary cultures of non-CF human tracheal gland (HTG) serous cells. (left and gmiddle) TMEM16A, CFTR and ENaC were inhibited by pretreatment with T16Ainh-A01, CFTRinh-172 and amiloride, respectively. Inset: TMEM16A immunoblot in whole cell homogenates of CF HBE and HTG cells. (right) Summary of UTP and Eact-induced peak current in the presence and absence of T16Ainh-A01 (mean±S.E., n=3, * P<0.05).
# Tracheal and bronchial tissues were obtained from non-CF and CF patients following lung transplantation or from postmortem examinations performed within 24 h after death. […]
# Snapwell inserts containing TMEM16A-expressing FRT, HBE, CF HBE or HTG cells were mounted in Ussing chambers (Physiologic Instruments, San Diego, Calif.). […] Apical membrane current (for FRT cells) and short-circuit current were measured using an EVC4000 Multi-Channel V/I Clamp (World Precision Instruments, Sarasota, Fla.) and recorded using PowerLab/8sp (AD Instruments, Castle Hill, Australia).
# [3] = system: mouse ileal smooth muscle; assay: Intestinal smooth muscle contraction, ex vivo mouse ileal segments; details: T16Ainh-A01 10 μM
# Experimental: FIG. 8A-C. Intestinal smooth muscle contraction. FIG. 8A. Representative traces from mouse ileal segments showing effects of T16Ainh-A01 (10 μM), carbachol (CCh, 1 μM) and Eact (10 μM). FIG. 8B. Effect of CCh (1 μM) and Eact (10 μM) following atropine (1 μM). FIG. 8C. Summary of contraction frequency (left), and resting and maximum tone (right) (mean±S.E., n=4-7, * P<0.05).
# Wild type CD1 mice (age 8-10 weeks) were killed by avertin overdose (200 mg/kg). The ileum removed and washed with ice-cold HCO3^−-buffered solution. The ends of the ileal segments were tied with silk thread and connected to a force transducer. Beal segments were equilibrated for 60 min with a resting force of ˜1 mN, with changes of the bathing solution every 15 min. Tension was monitored continuously with a fixed-range precision force transducer (TSD, 125 C; Biopac, Goleta, Calif.) connected to a differential amplifier (DA 100B; Biopac). Data were recorded using MP100, Biopac digital acquisition system and analyzed using Acknowledge 3.5.7 software.
# TMEM16A in expressed in the interstitial cells of Cajal, the pacemaker cells that control smooth muscle contraction dynamics in stomach and intestine (Huang et al., supra; Gomez-Pinilla et al. (2009) Am. J. Physiol. Gastrointest. Liver Physiol. 296, G1370-1381). The effect of Eact on mouse ileal smooth muscle contraction was investigated using an ex vivo intestinal preparation. […] Without wishing to be bound by theory, the constitutive TMEM16A activity in this ex vivo preparation could obscure Eact activity. To reveal Eact effects, atropine was first added to inhibit basal contractions. […] FIG. 8C summarizes data on contraction frequency, resting tone and maximal tone.
compound,measurement,setting,value
"CCc1c(C)nc(SCC(=O)Nc2nc(-c3ccc(OC)cc3)cs2)[nH]c1=O [T16Ainh-A01, reference compound]",effect of pretreatment on UTP- and Eact-induced Cl^− current,[1],largely abolished
same,block of Eact-induced Cl^− current in IL-4 treated CF bronchial cells,[2],blocked
same,spontaneous intestinal contractions at baseline,[3],inhibited

# Reference: patent US9790218B2, “Small molecule activators of calcium-activated chloride channels and methods of use” (The Regents of the University of California, priority 2011, dated 2017)
